Experimental findings from patent US8278345B2, “Inhibitors of glutaminyl cyclase” (Probiodrug AG, priority 2006, dated 2012) are described below.

Structures are written as SMILES. Where two headings read alike, the source gives them in different places.

The target of this experiment is hQC (Homo sapiens, UniProt Q16769). Nature of the experiment: Inhibitor assay for glutaminyl cyclase activity (fluorometric, H-Gln-βNA / H-Gln-AMC). Type of experiment: biochemical. The essentials:
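Ki values came from fitting progress curves to a competitive inhibition model; rapid screens used 4 mM inhibitor with substrate at KM. QC activity was read at 30 °C via auxiliary pyroglutamyl aminopeptidase releasing βNA (0.2 mM H-Gln-βNA, 0.2 M Tris pH 8.0, 20 mM EDTA) or AMC (0.05 M Tris pH 8.0, 5 mM EDTA).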

[1] abbreviates: compound from preparative synthesis, purified, read-out: IC50 hQC.

Chain of hQC (Q16769 29-361): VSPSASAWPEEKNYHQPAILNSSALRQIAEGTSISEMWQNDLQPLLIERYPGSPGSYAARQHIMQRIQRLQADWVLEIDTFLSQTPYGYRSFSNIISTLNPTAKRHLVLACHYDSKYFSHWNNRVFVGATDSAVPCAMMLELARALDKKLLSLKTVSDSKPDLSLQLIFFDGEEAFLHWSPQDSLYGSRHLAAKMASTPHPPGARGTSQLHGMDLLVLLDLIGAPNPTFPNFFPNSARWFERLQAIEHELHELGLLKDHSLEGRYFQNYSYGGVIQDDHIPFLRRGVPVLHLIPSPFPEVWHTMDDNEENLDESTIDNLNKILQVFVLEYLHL

The IC50 is the point on the concentration scale where inhibition reaches its midpoint. As to `CCCCCC1C(c2c[nH]c3ccccc23)=C(O)C(=O)N1CCCn1ccnc1` (stereo not shown) [Compound 124, 3-Hydroxy-1-(3-imidazol-1-yl-propyl)-4-(1H-indol-3-yl)-5-pentyl-1,5-dihydro-pyrrol-2-one], the IC50 (read-out: IC50) worked out at 400 nM.

With `O=C1C(O)=C(c2ccccc2)C(c2c(O)ccc3ccccc23)N1CCCn1ccnc1` (stereo not shown) [Compound 100, 3-Hydroxy-5-(2-hydroxy-naphthalen-1-yl)-1-(3-imidazol-1-yl-propyl)-4-phenyl-1,5-dihydro-pyrrol-2-one], the IC50 (read-out: IC50) worked out at 400 nM.

For `O=C1C(O)=C(c2c[nH]c3ccccc23)C(c2cccc(Cl)c2)N1CCCn1ccnc1` (stereo not shown) [Compound 143, 5-(3-Chloro-phenyl)-3-hydroxy-1-(3-imidazol-1-yl-propyl)-4-(1H-indol-3-yl)-1,5-dihydro-pyrrol-2-one], the IC50 is 134 nM under setting [1] and 40 nM (read-out: IC50).

In the case of `CC(=O)C1=C(O)C(=O)N(c2ccc3[nH]cnc3c2)C1c1nccs1` (stereo not shown) [Compound 349, 4-Acetyl-1-(1H-benzoimidazol-5-yl)-3-hydroxy-5-thiazol-2-yl-1,5-dihydro-pyrrol-2-one], the IC50 (read-out: IC50) turned out to be 1030 nM.

`CCCC(=O)C1=C(O)C(=O)N(c2ccc3[nH]cnc3c2)C1c1ccsc1` (stereo not shown) [Compound 424, 1-(1H-Benzoimidazol-5-yl)-4-butyryl-3-hydroxy-5-thiophen-3-yl-1,5-dihydro-pyrrol-2-one]: the IC50 (read-out: IC50) turned out to be 850 nM.

`CC1=C(O)C(=O)N(c2ccc3[nH]cnc3c2)C1c1ccc2cccc(O)c2n1` (stereo not shown) [Compound 319, 1-(1H-Benzoimidazol-5-yl)-3-hydroxy-5-(8-hydroxy-quinolin-2-yl)-4-methyl-1,5-dihydro-pyrrol-2-one]: where the note is “read-out: IC50”, the IC50 came to 2830 nM.

Take `CC(=O)C1=C(O)C(=O)N(c2ccc3[nH]cnc3c2)C1c1cc(Br)c(O)c(Br)c1` (stereo not shown) [Compound 414, 4-Acetyl-1-(1H-benzoimidazol-5-yl)-5-(3,5-dibromo-4-hydroxy-phenyl)-3-hydroxy-1,5-dihydro-pyrrol-2-one]: for the setting “read-out: IC50”, the IC50 came to 2380 nM.

On to `CCCCCC1=C(O)C(=O)N(CCCn2ccnc2)C1c1cc(Cl)cc(Cl)c1O` (stereo not shown) [Compound 183, 5-(3,5-Dichloro-2-hydroxy-phenyl)-3-hydroxy-1-(3-imidazol-1-yl-propyl)-4-pentyl-1,5-dihydro-pyrrol-2-one], for which, where the note is “read-out: IC50”, the concentration for half-maximal inhibition (IC50) was 40 nM.

As to `CC(=O)C1=C(O)C(=O)N(c2ccc3[nH]cnc3c2)C1C1CCOC1` (stereo not shown) [Compound 314, 4-Acetyl-1-(1H-benzoimidazol-5-yl)-3-hydroxy-5-(tetrahydro-furan-3-yl)-1,5-dihydro-pyrrol-2-one], where the note is “read-out: IC50”, the IC50 was determined as 4810 nM.

As for `O=C1C(O)=C(c2ccccc2)C(c2ccco2)N1CCCn1ccnc1` (stereo not shown) [Compound 106, 5-Furan-2-yl-3-hydroxy-1-(3-imidazol-1-yl-propyl)-4-phenyl-1,5-dihydro-pyrrol-2-one], the IC50 (read-out: IC50) stood at 40 nM.

As for `O=C1C(O)=C(c2ccc(O)cc2)C(c2ccc(CO)o2)N1CCCn1ccnc1` (stereo not shown) [Compound 161, 3-Hydroxy-5-(5-hydroxymethyl-furan-2-yl)-4-(4-hydroxy-phenyl)-1-(3-imidazol-1-yl-propyl)-1,5-dihydro-pyrrol-2-one], the IC50 (read-out: IC50) amounted to 400 nM.

Turning to `CCCCCC1=C(O)C(=O)N(CCCn2ccnc2)C1CCC` (stereo not shown) [Compound 187, 3-Hydroxy-1-(3-imidazol-1-yl-propyl)-4-pentyl-5-propyl-1,5-dihydro-pyrrol-2-one], for the setting “read-out: IC50”, the IC50 was 40 nM.

For the molecule `O=C1C(O)=C(c2ccccc2)C(c2cccc(O)c2)N1CCCn1ccnc1` (stereo not shown) [Compound 112, 3-Hydroxy-5-(3-hydroxy-phenyl)-1-(3-imidazol-1-yl-propyl)-4-phenyl-1,5-dihydro-pyrrol-2-one], the half-inhibitory concentration (IC50) was found to be 1960 nM under setting [1] and 400 nM (read-out: IC50).

For the molecule `CC(C)C1=C(O)C(=O)N(CCCn2ccnc2)C1c1cccs1` (stereo not shown) [Compound 71, 3-Hydroxy-1-(3-imidazol-1-yl-propyl)-4-isopropyl-5-thiophen-2-yl-1,5-dihydro-pyrrol-2-one], the IC50 (read-out: IC50) came out at 4000 nM.

As to `CCC1=C(O)C(=O)N(c2ccc3[nH]cnc3c2)C1c1cc(Br)c(O)c(Br)c1` (stereo not shown) [Compound 288, 1-(1H-Benzoimidazol-5-yl)-5-(3,5-dibromo-4-hydroxy-phenyl)-4-ethyl-3-hydroxy-1,5-dihydro-pyrrol-2-one], the IC50 (read-out: IC50) amounted to 2290 nM.

With `CCC/C=C/C1C(c2ccc(O)cc2)=C(O)C(=O)N1CCCn1ccnc1` (stereo not shown) [Compound 149, 3-Hydroxy-4-(4-hydroxy-phenyl)-1-(3-imidazol-1-yl-propyl)-5-(pent-1-enyl)-1,5-dihydro-pyrrol-2-one], where the note is “read-out: IC50”, the IC50 turned out to be 1300 nM.

Take `O=C1C(O)=C(c2ccccc2)C(c2ccccn2)N1CCCn1ccnc1` (stereo not shown) [Compound 101, 3-Hydroxy-1-(3-imidazol-1-yl-propyl)-4-phenyl-5-pyridin-2-yl-1,5-dihydro-pyrrol-2-one]: the IC50 (read-out: IC50) is 400 nM.

For the molecule `O=C1C(O)=C(c2ccc(O)cc2)C(c2cccc3cccnc23)N1c1ccc2[nH]cnc2c1` (stereo not shown) [Compound 364, 1-(1H-Benzoimidazol-5-yl)-3-hydroxy-4-(4-hydroxy-phenyl)-5-quinolin-8-yl-1,5-dihydro-pyrrol-2-one], the IC50 (read-out: IC50) was 5080 nM.

As for `Cc1ccc(C2C(c3c[nH]c4ccccc34)=C(O)C(=O)N2CCCn2ccnc2)cc1` (stereo not shown) [Compound 114, 3-Hydroxy-1-(3-imidazol-1-yl-propyl)-4-(1H-indol-3-yl)-5-p-tolyl-1,5-dihydro-pyrrol-2-one], the IC50 is 266 nM under setting [1] and 40 nM (read-out: IC50).

`CC(C)C1=C(O)C(=O)N(c2ccc3[nH]cnc3c2)C1C1COC(C)(C)O1` (stereo not shown) [Compound 300, 1-(1H-Benzoimidazol-5-yl)-5-(2,2-dimethyl-[1,3]dioxolan-4-yl)-3-hydroxy-4-isopropyl-1,5-dihydro-pyrrol-2-one]: the IC50 (read-out: IC50) amounted to 4 nM.

On to `Cc1cccc(C2C(C(C)C)=C(O)C(=O)N2c2ccc3[nH]cnc3c2)n1` (stereo not shown) [Compound 430, 1-(1H-Benzoimidazol-5-yl)-3-hydroxy-4-isopropyl-5-(6-methyl-pyridin-2-yl)-1,5-dihydro-pyrrol-2-one], for which, where the note is “read-out: IC50”, the IC50 came to 9490 nM.

`CC1=C(O)C(=O)N(CCCn2ccnc2)C1c1ccc(C)c(C)c1` (stereo not shown) [Compound 29, 5-(3,4-Dimethyl-phenyl)-3-hydroxy-1-(3-imidazol-1-yl-propyl)-4-methyl-1,5-dihydro-pyrrol-2-one]: the IC50 (read-out: IC50) worked out at 400 nM.

With `CC(=O)C1=C(O)C(=O)N(c2ccc3[nH]cnc3c2)C1c1ccc(N2CCCC2)cc1` (stereo not shown) [Compound 345, 4-Acetyl-1-(1H-benzoimidazol-5-yl)-3-hydroxy-5-(4-pyrrolidin-1-yl-phenyl)-1,5-dihydro-pyrrol-2-one], where the note is “read-out: IC50”, the IC50 was found to be 1570 nM.

Turning to `CC1=C(O)C(=O)N(c2ccc3nc[nH]c3c2)C1c1cccc(F)c1F` (stereo not shown) [Compound 259, 1-(1H-Benzoimidazol-5-yl)-5-(2,3-difluoro-phenyl)-3-hydroxy-4-methyl-1,5-dihydro-pyrrol-2-one], the IC50 (read-out: IC50) is 1300 nM.

Regarding `CC1C(c2ccccc2)=C(O)C(=O)N1CCCn1ccnc1` (stereo not shown) [Compound 90, 3-Hydroxy-1-(3-imidazol-1-yl-propyl)-5-methyl-4-phenyl-1,5-dihydro-pyrrol-2-one], for the setting “read-out: IC50”, the IC50 was 1300 nM.

As for `O=C(C1=C(O)C(=O)N(c2ccc3[nH]cnc3c2)C1c1cccc(F)c1)C1CC1` (stereo not shown) [Compound 370, 1-(1H-Benzoimidazol-5-yl)-4-cyclopropanecarbonyl-5-(3-fluoro-phenyl)-3-hydroxy-1,5-dihydro-pyrrol-2-one], where the note is “read-out: IC50”, the IC50 stood at 7690 nM.

With `CCCCCC1C(F)=C(O)C(=O)N1CCCn1ccnc1` (stereo not shown) [Compound 2, 4-Fluoro-3-hydroxy-1-(3-imidazol-1-yl-propyl)-5-pentyl-1,5-dihydro-pyrrol-2-one], the IC50 (read-out: IC50) is 4900 nM.

`CC1C(F)=C(O)C(=O)N1CCCn1ccnc1` (stereo not shown) [Compound 3, 4-Fluoro-3-hydroxy-1-(3-imidazol-1-yl-propyl)-5-methyl-1,5-dihydro-pyrrol-2-one]: the IC50 (read-out: IC50) worked out at 8500 nM.

For the molecule `O=C(C1=C(O)C(=O)N(c2ccc3[nH]cnc3c2)C1c1cccc2cccnc12)C1CC1` (stereo not shown) [Compound 443, 1-(1H-Benzoimidazol-5-yl)-4-cyclopropanecarbonyl-3-hydroxy-5-quinolin-8-yl-1,5-dihydro-pyrrol-2-one], the IC50 (read-out: IC50) is 4630 nM.

For the molecule `CC1=C(O)C(=O)N(CCCn2ccnc2)C1c1ccccc1` (stereo not shown) [Compound 34, 3-Hydroxy-1-(3-imidazol-1-yl-propyl)-4-methyl-5-phenyl-1,5-dihydro-pyrrol-2-one], where the note is “read-out: IC50”, the IC50 was found to be 1300 nM.

On to `O=C1C(O)=C(c2ccc(O)cc2)C(c2c(O)ccc3ccccc23)N1CCCn1ccnc1` (stereo not shown) [Compound 170, 3-Hydroxy-5-(2-hydroxy-naphthalen-1-yl)-4-(4-hydroxy-phenyl)-1-(3-imidazol-1-yl-propyl)-1,5-dihydro-pyrrol-2-one], for which the IC50 (read-out: IC50) turned out to be 1300 nM.

Regarding `O=C1C(O)=C(c2cccc(O)c2)C(c2c[nH]c3ccccc23)N1CCCn1ccnc1` (stereo not shown) [Compound 18, 3-Hydroxy-4-(3-hydroxy-phenyl)-1-(3-imidazol-1-yl-propyl)-5-(1H-indol-3-yl)-1,5-dihydro-pyrrol-2-one], the IC50 (read-out: IC50) came out at 9400 nM.

Turning to `CC(C)(C)C(=O)C1=C(O)C(=O)N(c2ccc3[nH]cnc3c2)C1c1ccc2cccc(O)c2n1` (stereo not shown) [Compound 310, 1-(1H-Benzoimidazol-5-yl)-4-(2,2-dimethyl-propionyl)-3-hydroxy-5-(8-hydroxy-quinolin-2-yl)-1,5-dihydro-pyrrol-2-one], where the note is “read-out: IC50”, the IC50 turned out to be 1030 nM.

For the molecule `O=C1C(O)=C(c2ccccc2)C(c2ccc3[nH]ccc3c2)N1CCCn1ccnc1` (stereo not shown) [Compound 85, 3-Hydroxy-1-(3-imidazol-1-yl-propyl)-5-(1H-indol-5-yl)-4-phenyl-1,5-dihydro-pyrrol-2-one], the IC50 under setting [1] was determined as 640 nM and the IC50 (read-out: IC50) amounted to 40 nM.

As to `CCCCCC1=C(O)C(=O)N(CCCn2ccnc2)C1c1ccc(C)o1` (stereo not shown) [Compound 191, 3-Hydroxy-1-(3-imidazol-1-yl-propyl)-5-(5-methyl-furan-2-yl)-4-pentyl-1,5-dihydro-pyrrol-2-one], the IC50 turned out to be 1750 nM under setting [1] and 40 nM (read-out: IC50).
